Residues, ends and D or L forms follow the SMILES beside them.
Experiments:
[1] = biological target: T1, Cathepsin E (CatE) (Homo sapiens, UniProt P14091); experiment: CatE detection in PBS with peptide aptamer-modified liquid-gated SWCNT FET; type: binding; conditions: aptamer on SWCNT FET via PBASE; CatE 0.1 to 1 ng/mL in 1× PBS pH 10, 10 min, 25 °C; measured in 0.0005× PBS pH 4, -0.6 V; read-out: Kd (Langmuir isotherm fit of FET response)
T1 construct: purchased BioVision, Inc. (CA, USA)
T1 sequence (P14091 54-396): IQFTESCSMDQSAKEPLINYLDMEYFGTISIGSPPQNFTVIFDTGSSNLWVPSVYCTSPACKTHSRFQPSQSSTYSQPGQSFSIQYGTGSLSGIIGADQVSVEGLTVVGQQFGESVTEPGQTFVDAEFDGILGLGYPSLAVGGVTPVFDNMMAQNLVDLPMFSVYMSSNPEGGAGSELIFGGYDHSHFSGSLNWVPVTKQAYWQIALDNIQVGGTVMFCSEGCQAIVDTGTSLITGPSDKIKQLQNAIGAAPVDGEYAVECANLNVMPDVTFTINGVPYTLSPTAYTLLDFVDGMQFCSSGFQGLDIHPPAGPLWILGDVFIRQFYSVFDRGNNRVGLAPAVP
Experimental: The peptide aptamer was immobilized onto the SWCNT channel via the PBASE linker prior to the capture of CatE. Next, the sensor was exposed to 0.0005× PBS pH 4 for electrical measurements. […] The transfer curve of the SWCNT FET initially shifted toward the negative bias direction after the immobilization of the peptide aptamer. With increasing CatE concentrations from 0.1 to 0.6 ng/mL, the curve further shifted toward the same direction. This phenomenon is attributed to the positively charged CatE molecules at PBS pH 4 (the isoelectric point of CatE is 4.69) inducing the gradual reduction of hole carriers in the SWCNT channel via a field effect. At concentrations greater than this concentration, the shift of the transfer curve is no longer observed because all peptide aptamer probe molecules are occupied by CatE molecules. The relative decrease in the “on” current (∆I/∆Imax), where ∆Imax represents the decrease in “on” current at a saturation level due to the interaction between CatE and peptide aptamer-modified SWCNT FETs, at a top liquid-gated voltage of −0.6 V was plotted as a function of CatE concentration, as shown in Fig. 5b. […]
We measured the transfer characteristics of the fabricated sensor using a top liquid-gated scheme in 0.0005× PBS pH 4. […]

[2] = biological target: T1, Cathepsin E (CatE); experiment: SPR analysis (Biacore X100) of peptide aptamer binding to Cathepsin E; conditions: Biacore X100, CM5 chip, aptamer immobilized via C-terminal biotin-streptavidin, 1000 RU; single-cycle, CatE 858.37-1.37 ng/mL; steady-state affinity; read-out: dissociation constant (Kd)
Text: CatE is composed of an in vitro-selected peptide aptamer (24 amino acids comprising two peptide blocks of 12- and 8-amino acids paired by a 4-amino acid linker) and a short alpha-strand peptide scaffold (7-amino acids). A Biacore X100 instrument was used to characterize the binding features of the peptide aptamer to CatE. A free N-terminal end of the peptide aptamer is necessary for its correct folding as a basis for the formation of the binding complex with the target. Therefore, the C-terminal end of the peptide aptamer with biotin-streptavidin chemistry was immobilized onto a CM5 sensor chip, and then CatE was injected as the analyte across this surface for interaction with the peptide aptamer. […] The dissociation constant (Kd) for the CatE was calculated as 0.954 ± 0.067 nM.
Figure 3 Peptide aptamer characterization. […] The data for the steady-state affinity binding plot were calculated from the end of the association phases against the analyte concentration. […]
A novel peptide aptamer that specifically recognizes CatE was engineered via systemic in vitro evolution. […] A steady-state affinity binding plot was calculated from the end of the association phases against the analyte concentration.

Question: `CC[C@H](C)[C@H](NC(=O)CNC(=O)CNC(=O)[C@H](CS)NC(=O)[C@@H](N)CO)C(=O)N[C@H](C(=O)N[C@H](C(=O)N[C@H](C(=O)N[C@@H](CO)C(=O)N[C@@H](CS)C(=O)N[C@H](C(=O)N[C@@H](C)C(=O)N[C@H](C(=O)N[C@H](C(=O)N[C@@H](CO)C(=O)N[C@@H](CC(C)C)C(=O)N[C@H](C(=O)N1CCC[C@H]1C(=O)NCC(=O)N[C@@H](CCCNC(=N)N)C(=O)N[C@H](C(=O)NCC(=O)N[C@@H](CS)C(=O)N[C@H](C(=O)N[C@@H](CCCNC(=N)N)C(=O)N[C@@H](C)C(=O)N[C@@H](CCCCN)C(=O)N[C@@H](C)C(=O)N[C@@H](C)C(=O)N[C@@H](C)C(=O)N[C@@H](CCCCN)C(=O)O)[C@@H](C)CC)[C@@H](C)CC)[C@@H](C)CC)[C@@H](C)CC)C(C)C)[C@@H](C)CC)[C@@H](C)CC)[C@@H](C)CC)[C@@H](C)CC` [peptide aptamer] (H-SCGGIIIISCIAVISLIPGRIGCIRAKAAAK-OH) was tested. Which Kd [1] did it give?
Answer: 0.00277 nM

Question: And the Kd [2]?
Answer: 0.954 nM

Source: paper PMC5738443, “Peptide aptamer-modified single-walled carbon nanotube-based transistors for high-performance biosensors” (Scientific Reports, 2017)
